Legend:
[1] = Cytotoxicity in uninfected MT4 cells (MTT); assay type: cell-based; settings: human, 5 days, n=four duplicate determinations, read-out: CTC50 (50% cytotoxicity concentration)
Procedure: The anti-HIV activity of the compound of the invention was determined in MF4 cells according to the following procedure: MT4 cells were infected with cell-free supernatant of HIVIIIB (previously frozen with known 50% tissue culture infectious dose (TCID50) at 0.003 multiplicity of infection (MOI)) for one hour. After one hour infection, cells were washed twice to remove residual viruses, resuspended in culture media and seeded into 96-well tissue culture plates at 1×10^4 cells per well with various half-log dilutions of compounds. Uninfected cells were included a toxicity and cell controls. […] All assay plates were incubated in a 37° C. incubator for 5 days. […] SDS (20%) with 0.02N HCl in water was added at 50 μL per well to lyse cells. Plates were incubated overnight for complete cell lysis and then read on a microtiter plate reader at 570/650 nm wavelengths to determine cell optical density (O.D.). Raw data was analysed for percent inhibition by the following formula: [formula]
The 50% cytotoxicity concentration (CTC50) was calculated using uninfected MT4 cells

HIVIIIB = test: Antiviral Activity: anti-HIV activity in MT4 cells infected with HIVIIIB (MTT); assay type: cell-based; settings: Human immunodeficiency virus 1, 120 h, MOI 0.003, 5 days, n=four duplicate determinations
Procedure: The anti-HIV activity of the compound of the invention was determined in MF4 cells according to the following procedure: MT4 cells were infected with cell-free supernatant of HIVIIIB (previously frozen with known 50% tissue culture infectious dose (TCID50) at 0.003 multiplicity of infection (MOI)) for one hour. After one hour infection, cells were washed twice to remove residual viruses, resuspended in culture media and seeded into 96-well tissue culture plates at 1×10^4 cells per well with various half-log dilutions of compounds. Uninfected cells were included a toxicity and cell controls. RPMI 1640 media (GIBCO) with 10% fetal bovine serum was used as culture media. Various concentrations (50%, 25% and 12.5%) of human serum (SIGMA) were added to culture media resulting in final concentrations of 60%, 35% and 22.5% total serum. All assay plates were incubated in a 37° C. incubator for 5 days. The compound 3-[4,5-dimethylthiozol-2-yl]-2,5-diphenyltetrazolium bromide (MTT, SIGMA, 5 mg .mL stock in PBS) was then added to all wells at 25 μL per well and incubated for 4 hours. SDS (20%) with 0.02N HCl in water was added at 50 μL per well to lyse cells. Plates were incubated overnight for complete cell lysis and then read on a microtiter plate reader at 570/650 nm wavelengths to determine cell optical density (O.D.). Raw data was analysed for percent inhibition by the following formula: [formula]
The 50% effective concentration (EC50) was calculated by the median effect equation (Chou, 1975, Proc. Int. Cong. Pharmacol. 6th p. 619) to determine the efficacy of compound. The 50% cytotoxicity concentration (CTC50) was calculated using uninfected MT4 cells
Under these conditions, the data of Table 2 was obtained (n=four duplicate determinations).

HIV-1 protease = HIV-1 protease (Human immunodeficiency virus type 1 group M subtype B, UniProt P04585); test: Fluorogenic Assay for Screening Inhibitors of HIV Protease; settings: pH 4.5

EC50 (HIVIIIB) [nM]	inhibition at 0.0005 µM (HIV-1 protease) [%]	inhibition at 0.0024 µM (HIV-1 protease) [%]	inhibition at 0.0029 µM (HIV-1 protease) [%]	SMILES	CC50 at 120 h [1] [nM]	inhibition at 0.0014 µM (HIV-1 protease) [%]
140	53	–	–	O=C(N[C@@H](Cc1ccccc1)[C@@H](O)C[C@H](Cc1ccccc1)NC(=O)O[C@@H]1CO[C@@H]2OCC[C@@H]21)OCc1cncs1 [Example 38, (2S,3S,5S)-2-((5-Thiazolyl)methoxycarbonyl)amino-5-((3S,3aR,6aS)-bis-tetrahydrofuran-3-yl-oxycarbonyl)amino-1,6-diphenyl-3-hydroxyhexane]	> 100000	–
34	74	–	–	CC(C)c1nc(CN(C)C(=O)N[C@H](C(=O)N[C@@H](Cc2ccccc2)[C@@H](O)C[C@H](Cc2ccccc2)NC(=O)O[C@H]2CO[C@H]3OCC[C@H]32)C(C)C)cs1 [Example 46, (2S,3S,5S)-2-(N-(N-((N-Methyl-N-((2-isopropyl-4-thiazolyl)methyl)amino)carbonyl)-L-valinyl)amino)-5-((3R,3aS,6aR)-bis-tetrahydrofuran-3-yl-oxycarbonyl)amino-1,6-diphenyl-3-hydroxyhexane]	56200	–
7	89	–	–	Cc1ccc(O)c(C)c1OCC(=O)N[C@@H](Cc1ccccc1)C[C@H](O)[C@H](Cc1ccccc1)NC(=O)O[C@H]1CO[C@H]2OCC[C@H]21 [Example 74, (2S,3S,5S)-5-(2,6-Dimethyl-3-hydroxy-phenoxyacetyl)amino-2-((3R,3aS,6aR)-bis-tetrahydrofuran-3-yl-oxycarbonyl)amino-1,6-diphenyl-3-hydroxyhexane]	50500	–
114	80	–	–	Cc1cc2[nH]cnc2c(C)c1OCC(=O)N[C@@H](Cc1ccccc1)C[C@H](O)[C@H](Cc1ccccc1)NC(=O)O[C@H]1CO[C@H]2OCC[C@H]21 [Example 24, (2S,3S,5S)-5-(4,6-Dimethyl-benzimidazol-5-yloxy-acetyl)amino-2-((3R,3aS,6aR)-bis-tetrahydrofuran-3-yl-oxycarbonyl)amino-1,6-diphenyl-3-hydroxyhexane]	> 100000	–
41	87	–	–	Cc1cccc(C)c1OCC(=O)N[C@@H](Cc1ccccc1)C[C@H](O)[C@H](Cc1ccccc1)NC(=O)O[C@H]1CO[C@H]2OCC[C@H]21 [Example 5, (2S,3S,5S)-5-(2,6-Dimethyl-phenoxyacetyl)amino-2-((3R,3aS,6aR)-bis-tetrahydrofuran-3-yl-oxycarbonyl)amino-1,6-diphenyl-3-hydroxyhexane]	> 100000	–
1560	–	–	50	Nc1ccc(Cl)c(C(=O)N[C@@H](Cc2ccccc2)[C@@H](O)C[C@H](Cc2ccccc2)NC(=O)O[C@@H]2CO[C@@H]3OCC[C@@H]32)c1 [Example 63, (2S,3S,5S)-2-(3-Amino-6-chloro-benzoyl)amino-5-((3S,3aR,6aS)-bis-tetrahydrofuran-3-yl-oxycarbonyl)amino-1,6-diphenyl-3-hydroxyhexane]	> 100000	–
32	74	–	–	Cc1cc(C)c(OCC(=O)N[C@@H](Cc2ccccc2)C[C@H](O)[C@H](Cc2ccccc2)NC(=O)O[C@H]2CO[C@H]3OCC[C@H]32)c(C)c1N [Example 4, (2S,3S,5S)-5-(2,4,6-Trimethyl-3-amino-phenoxyacetyl)amino-2-((3R,3aS,6aR)-bis-tetrahydrofuran-3-yl-oxycarbonyl)amino-1,6-diphenyl-3-hydroxyhexane]	41000	–
81	70	–	–	Nc1ccc(Cl)c(C(=O)N[C@@H](Cc2ccccc2)[C@@H](O)C[C@H](Cc2ccccc2)NC(=O)O[C@H]2CO[C@H]3OCC[C@H]32)c1 [Example 62, (2S,3S,5S)-2-(3-Amino-6-chloro-benzoyl)amino-5-((3R,3aS,6aR)-bis-tetrahydrofuran-3-yl-oxycarbonyl)amino-1,6-diphenyl-3-hydroxyhexane]	> 100000	–
200	64	–	–	O=C(N[C@@H](Cc1ccccc1)C[C@H](O)[C@H](Cc1ccccc1)NC(=O)c1ccc(O)cc1)O[C@H]1CO[C@H]2OCC[C@H]21 [Example 64, (2S,3S,5S)-2-(4-Hydroxy-benzoyl)amino-5-((3R,3aS,6aR)-bis-tetrahydrofuran-3-yl-oxycarbonyl)amino-1,6-diphenyl-3-hydroxyhexane]	> 100000	–
253	69	–	–	Cc1cccc(C)c1NCC(=O)N[C@@H](Cc1ccccc1)[C@@H](O)C[C@H](Cc1ccccc1)NC(=O)O[C@H]1CO[C@H]2OCC[C@H]21 [Example 9, (2S,3S,5S)-5-(N-(2,6-Dimethyl-phenyl)aminoacetyl)amino-2-((3R,3aS,6aR)-bis-tetrahydrofuran-3-yl-oxycarbonyl)amino-1,6-diphenyl-3-hydroxyhexane]	56000	–
442	84	–	–	Cc1cccc(C)c1OCC(=O)N[C@@H](Cc1ccccc1)[C@@H](O)C[C@H](Cc1ccccc1)NC(=O)O[C@@H]1CCS(=O)(=O)C1(C)C [Example 33, (2S,3S,5S)-2-(2,6-Dimethylphenoxyacetyl)amino-5-(3R-2,2-dimethyl-1,1-dioxy-tetrahydrothienyloxycarbonyl)amino-1,6-diphenyl-3-hydroxyhexane]	18300	–
61	91	–	–	Cc1cccc(C)c1OCC(=O)N[C@@H](Cc1ccccc1)[C@@H](O)C[C@H](Cc1ccccc1)NC(=O)O[C@H]1CO[C@H]2OCC[C@H]21 [Example 6, (2S,3S,5S)-2-(2,6-Dimethyl-phenoxyacetyl)amino-5-((3R,3aS,6aR)-bis-tetrahydrofuran-3-yl-oxycarbonyl)amino-1,6-diphenyl-3-hydroxyhexane]	> 100000	–
450	56	–	–	CC(C)[C@H](NC(=O)N(C)Cc1cncs1)C(=O)N[C@@H](Cc1ccccc1)C[C@H](O)[C@H](Cc1ccccc1)NC(=O)O[C@H]1CO[C@H]2OCC[C@H]21 [Example 45, (2S,3S,5S)-5-(N-(N-((N-Methyl-N-((5-thiazolyl)methyl)amino)carbonyl)-L-valinyl)amino)-2-((3R,3aS,6aR)-bis-tetrahydrofuran-3-yl-oxycarbonyl)amino-1,6-diphenyl-3-hydroxyhexane]	> 100000	–
160	43	–	–	Cc1cc(N(C)C)cc(C)c1OCC(=O)N[C@@H](Cc1ccccc1)C[C@H](O)[C@H](Cc1ccccc1)NC(=O)O[C@H]1CO[C@H]2OCC[C@H]21 [Example 15, 5-(2,6-Dimethyl-4-N, N-dimethylamino-phenoxyacetyl)amino-2-((3R,3aS,6aR)-bis-tetrahydrofuran-3-yl-oxycarbonyl)amino-1,6-diphenyl-3-hydroxyhexane]	46000	–
270	42	–	–	CC(C)[C@@H](NC(=O)OCc1cncs1)C(=O)N[C@@H](Cc1ccccc1)C[C@H](O)[C@H](Cc1ccccc1)NC(=O)O[C@H]1CO[C@H]2OCC[C@H]21 [Example 43, (2S,3S,5S)-5-(N-(N-((5-Thiazolyl)methoxycarbonyl)-D-valinyl)amino)-2-((3R,3aS,6aR)-bis-tetrahydrofuran-3-yl-oxycarbonyl)amino-1,6-diphenyl-3-hydroxyhexane]	> 100000	–

SMILES	EC50 (HIVIIIB) [nM]	inhibition at 0.0005 µM (HIV-1 protease) [%]	inhibition at 0.0024 µM (HIV-1 protease) [%]	inhibition at 0.0029 µM (HIV-1 protease) [%]	CC50 at 120 h [1] [nM]	inhibition at 0.0014 µM (HIV-1 protease) [%]
Cc1cccc(C)c1N(C)CC(=O)N[C@@H](Cc1ccccc1)C[C@H](O)[C@H](Cc1ccccc1)NC(=O)O[C@H]1CO[C@H]2OCC[C@H]21 [Example 13, (2S,3S,5S)-5-(N-(2,6-Dimethyl-phenyl)-N-methyl-aminoacetyl)amino-2-((3R,3aS,6aR)-bis-tetrahydrofuran-3-yl-oxycarbonyl)amino-1,6-diphenyl-3-hydroxyhexane]	2910	–	50	–	18000	–
CC(=O)Oc1ccc(C(=O)N[C@@H](Cc2ccccc2)C[C@H](O)[C@H](Cc2ccccc2)NC(=O)O[C@H]2CO[C@H]3OCC[C@H]32)cc1 [Example 54, (2S,3S,5S)-5-(4-Acetoxy-benzoyl)amino-2-((3R,3aS,6aR)-bis-tetrahydrofuran-3-yl-oxycarbonyl)amino-1,6-diphenyl-3-hydroxyhexane]	145	–	–	–	> 100000	50
